Assay in all cases: inhibition of tumour cell growth, NCI panel, 48 h
In experiment [1] the test system is A498 renal.
For experiment [2], the system named is HL-60(TB) leukemia.
Experiment [3] relates to HOP-62 NSCLC.
In experiment [4] the test system is HT29 colon.
Experiment [5] concerns IGROV1 ovarian.
Experiment [6] relates to MALME-3M melanoma.
Experiment [7] has as its system MOLT-4 leukemia.
The subject of experiment [8] is NCI-H460 lung.
Experiment [9] has as its system NCI-H522 lung.
In experiment [10] the test system is SK-MEL-5 melanoma.
In experiment [11] the test system is SK-OV-3 ovarian.
In experiment [12] the test system is SN12C renal.
Experiment [13] deals with TK-10 renal.
Experiment [14] deals with HS 578T breast.

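Exposure lasted 48 hours, with cells grown in 96-well plates and compounds tested at five concentrations. Abbreviation: GI50, concentration required for 50% inhibition of growth. TGI denotes the concentration required for complete inhibition of growth.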 Some results are limits rather than exact numbers.

Regarding `Cc1cccc2sc(NC(=O)c3cc([N+](=O)[O-])ccc3Cl)nc12`, the TGI in [1] was over 100 µM; in experiment [2] it was over 100 µM; in [3], over 73.1 µM; in experiment [4], 4.48 µM; in experiment [5], 10.7 µM; in experiment [6], 30.3 µM. In addition, the TGI in experiment [7] is over 100 µM; in experiment [8] it was over 100 µM; in experiment [9], 4.1 µM; in experiment [10], 5.32 µM; in [11] it was over 100 µM; in experiment [12], 3.34 µM. The TGI in experiment [13] was 11.4 µM.
Regarding `CN1N=C2c3ccccc3CC[C@H]2C1c1ccccc1` (stereo partly drawn), the TGI in experiment [1] was over 100 µM; in experiment [2], over 100 µM; in [3], over 100 µM; in [4], over 100 µM; in [5], over 100 µM; in [6], 72.9 µM. Moreover, the TGI is over 100 µM in experiment [7]; over 100 µM in experiment [8]; 94.3 µM in [9]; over 100 µM in experiment [11]; over 100 µM in experiment [12]; over 100 µM in [13].
As for `COC(=O)C(NC(=O)CNC(=O)CSc1nnc(COc2ccc(Cl)cc2)n1-c1ccccc1)C(C)C` (stereo not drawn), the TGI in [1] was determined as 56.7 µM; in experiment [3], 92 µM; in [14], 62.9 µM; in [4], 35.3 µM; in [5] it was 50.1 µM; in experiment [6], 35.5 µM. Besides, the TGI is over 100 µM in experiment [7]; 36.2 µM in [8]; 19.3 µM in [9]; 30 µM in experiment [10]; 35.9 µM in experiment [12]; 34.3 µM in experiment [13].
Take `COC(=O)[C@@H]1c2cc3c(c(O)c2[C@@H](OC)C[C@@]1(C)O)C(=O)c1c(O)cc2c(c1C3=O)OC1O[C@@]2(C)[C@H](O)[C@@H](N(C)C)[C@@H]1O`: the TGI is 0.764 µM in [1]; 1.06 µM in experiment [3]; 2 µM in experiment [4]; 1.7 µM in experiment [5]; 2.13 µM in [6]; over 150 µM in experiment [7]. For the same compound, the TGI in experiment [8] is 0.488 µM; in [9], 1.9 µM; in experiment [10], 1.05 µM; in experiment [11], 3.94 µM; in experiment [12], 2.1 µM.
Regarding `C=C(C)C1Cc2c(cc(O)c3c(=O)c4ccccc4n(C)c23)O1` (stereo not drawn), the TGI in [1] is 92.6 µM; in experiment [2], over 100 µM; in experiment [3], 61.3 µM; in [4] it was over 100 µM; in [6], over 100 µM; in experiment [7], over 100 µM. In addition, the TGI was over 100 µM in experiment [8]; 66.1 µM in experiment [9]; over 100 µM in [10]; 84.6 µM in experiment [11]; over 100 µM in experiment [12]; 34.8 µM in [13].
Consider `CN1CCN(CC(=O)Nc2ccc3ncnc(Nc4ccc(Oc5cccc(C(F)(F)F)c5)c(Cl)c4)c3c2)CC1`, for which the GI50 was 1.32 µM in experiment [1]; 1.56 µM in experiment [6]; 1.74 µM in experiment [8]; 1.7 µM in [12]; 1.25 µM in experiment [13]. The TGI in experiment [1] was found to be 2.66 µM; in experiment [6], 3.05 µM; in experiment [8] it was 3.29 µM; in [12] it was 3.26 µM; in [13] it was 2.83 µM.
`OC1C(O)C(O)C(O)C(O)C1O` (stereo not drawn): the TGI in [1], in [3], in experiment [14], in experiment [4], in [5] and in experiment [6] was over 1000 µM each time. Besides, the TGI in experiment [7] was 916 µM; in [8], over 1000 µM; in [10], over 1000 µM; in [11] it was over 1000 µM; in experiment [12], over 1000 µM; in experiment [13] it was over 1000 µM.
For the compound `O=c1ccc2ccccc2o1`, the TGI in [1], in experiment [2], in [3], in experiment [4], in [5] and in [6] was over 100 µM in each case. The TGI in experiment [7], in experiment [8], in experiment [9], in experiment [11], in [12] and in experiment [13] was over 100 µM throughout.
Take `O=c1c2cc(Br)ccc2oc2nc3n(c(=O)c12)CCCS3`: the TGI in experiment [1], in experiment [3], in experiment [14], in experiment [5], in experiment [6] and in experiment [7] was over 100 µM in each case. In addition, the TGI in [8], in experiment [9], in [10], in [12] and in experiment [13] was over 100 µM throughout.
Regarding `CCCCCCCCCCCCCCCCCCNc1ccn(C2OC(COP(=O)(O)O)C(O)C2O)c(=O)n1` (stereo not drawn), the TGI in experiment [1], in [3], in experiment [14], in experiment [4], in experiment [5] and in experiment [7] was over 100 µM in each case. Also, the TGI in [9], in [10], in [11], in experiment [12] and in experiment [13] was over 100 µM in each case.
As to `[Cl-].[Rh+3].c1ccc(-c2ccnc3c2ccc2c(-c4ccccc4)ccnc23)cc1.c1ccc(-c2ccnc3c2ccc2c(-c4ccccc4)ccnc23)cc1.c1ccc(-c2ccnc3c2ccc2c(-c4ccccc4)ccnc23)cc1`, the TGI was over 83.4 µM in [1]; 60.3 µM in experiment [2]; over 100 µM in experiment [3]; 73.7 µM in experiment [4]; over 100 µM in experiment [5]; 82.9 µM in experiment [6]. Also, the TGI is over 100 µM in experiment [7]; over 100 µM in experiment [8]; over 85.1 µM in experiment [9]; 50.3 µM in experiment [10]; over 100 µM in experiment [11]; over 100 µM in experiment [12].

These data come from PubChem BioAssay (NCI).
